Key:
Format in all cases: biochemical
zap70 = target: T1, zap70 (Homo sapiens, UniProt P43403); experiment: Kinase assay (ELISA or Alphascreen), zap70; conditions: standard conditions, read-out: zap70 inhibition of enzyme activity
T1 sequence (P43403 338-600 limits assumed): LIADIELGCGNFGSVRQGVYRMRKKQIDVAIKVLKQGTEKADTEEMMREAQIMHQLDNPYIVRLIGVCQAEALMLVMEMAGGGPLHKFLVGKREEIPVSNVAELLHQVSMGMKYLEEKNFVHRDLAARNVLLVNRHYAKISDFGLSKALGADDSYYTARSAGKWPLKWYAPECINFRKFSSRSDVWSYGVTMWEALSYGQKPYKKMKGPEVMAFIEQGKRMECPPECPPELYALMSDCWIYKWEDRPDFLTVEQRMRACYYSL
Experimental: (§1) Kinase assays were performed either in a 96 well capture-based ELISA assay or in 384 well Optiplates (Packard) using an Alphascreen Protein Tyrosine Kinase kit. In either case using approximately 15 μg of affinity purified PTK domain in the presence of 50 mM HEPES, pH 7.5, 10 mM MgCl2 150 mM NaCl and 10 μM-1 mM ATP. The biotinylated substrate biotin-EGPWLEEEEEAYGWMDF-NH2 (final concentration 5 μM) was used as substrate. In the ELISA assay tyrosine phosphorylation was quantitated following transfer to an avidin coated ELISA plate using peroxidase-linked anti-phospho-tyrosine antibody PY20. In the Alphascreen assay, Alphascreen phosphotyrosine acceptor beads followed by streptavidin donor beads were added under subdued light. The ELISA plates were read on a BMG Fluorostar, the Alphascreen plates were read on a Packard Fusion Alpha. Inhibitors were added to the assays fifteen minutes prior to the addition of ATP. Inhibitors were added in aqueous DMSO, with DMSO concentrations never exceeding 1%.

human JAK3 = target: T2, human JAK3 (Homo sapiens, UniProt P52333); experiment: JAK kinase assay (ELISA or Alphascreen), Jak3; conditions: standard conditions, read-out: Jak3 inhibition of enzyme activity
T2 construct: The kinase domain of human JAK3 was amplified from U937mRNA; His tag (pFastBac HTb vector; nickel chelate purification) (N); made in house; host or cells: baculovirus; Sf9 for virus, High Five insect cells for production
T2 sequence (P52333 822-1111 limits assumed): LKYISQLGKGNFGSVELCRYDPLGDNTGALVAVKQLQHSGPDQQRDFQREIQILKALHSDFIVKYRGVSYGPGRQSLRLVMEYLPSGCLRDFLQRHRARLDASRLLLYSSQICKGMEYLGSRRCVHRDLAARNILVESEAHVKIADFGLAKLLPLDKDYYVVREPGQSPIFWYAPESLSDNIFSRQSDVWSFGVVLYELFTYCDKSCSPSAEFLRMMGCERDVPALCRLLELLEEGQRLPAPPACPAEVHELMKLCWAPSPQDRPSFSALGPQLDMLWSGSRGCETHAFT
From the text: The kinase domain of human JAK3 was amplified from U937mRNA using the polymerase chain reaction with the following primers: […]
JAK3 PCR products were cloned into the pFastBac HTb expression vector (Gibco) via the Xho I and Kpn I sites. The JAK3 plasmid was then transformed into competent DH10Bac cells (Gibco), and the recombinant baculovirus produced prepared for transfection into Sf9 insect cells.
(§2) Baculovirus preparations from each of the JAK family members were infected into five litres of High Five cells (Invitrogen) grown in High Five serum free medium (Invitrogen) to a cell density of approximately 1-2×10^6 cells/ml. Cells are infected with virus at a MOI of 0.8-3.0. Cells were harvested and lysed. JAK kinase domains were purified by affinity chromatography on a Probond (Invitrogen) nickel chelate affinity column.
as §1

human JAK2 = target: T3, human JAK2 (Homo sapiens, UniProt O60674); experiment: JAK kinase assay (ELISA or Alphascreen), Jak2; conditions: standard conditions, read-out: Jak2 inhibition of enzyme activity
T3 construct: The kinase domain of human JAK2 was amplified from U937mRNA; His tag (pFastBac HTc vector; nickel chelate purification) (N); made in house; host or cells: baculovirus; Sf9 for virus, High Five insect cells for production
T3 sequence (O60674 849-1124 limits assumed): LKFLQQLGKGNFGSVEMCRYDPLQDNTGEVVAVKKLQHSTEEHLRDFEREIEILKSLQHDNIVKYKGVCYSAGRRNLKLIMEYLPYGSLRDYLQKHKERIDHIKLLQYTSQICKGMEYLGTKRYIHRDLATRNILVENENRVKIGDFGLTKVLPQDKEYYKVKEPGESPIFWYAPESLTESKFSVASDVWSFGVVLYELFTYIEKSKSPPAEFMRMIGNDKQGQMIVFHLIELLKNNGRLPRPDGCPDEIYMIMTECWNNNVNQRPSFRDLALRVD
From the text: The kinase domain of human JAK2 was amplified from U937mRNA using the polymerase chain reaction with the following primers: […]
JAK2 PCR products were cloned into the pFastBac HTc expression vector (Gibco) via the Sal I and Not I sites. The JAK2 plasmid was then transformed into competent DHL10Bac cells (Gibco), and the recombinant baculovirus produced prepared for transfection into Sf9 insect cells.
as §2, §1

hck = hck (Homo sapiens, UniProt P08631); experiment: Kinase assay (ELISA or Alphascreen), hck; conditions: standard conditions, read-out: hck inhibition of enzyme activity
Chain of hck (P08631 262-515 limits assumed, species assumed): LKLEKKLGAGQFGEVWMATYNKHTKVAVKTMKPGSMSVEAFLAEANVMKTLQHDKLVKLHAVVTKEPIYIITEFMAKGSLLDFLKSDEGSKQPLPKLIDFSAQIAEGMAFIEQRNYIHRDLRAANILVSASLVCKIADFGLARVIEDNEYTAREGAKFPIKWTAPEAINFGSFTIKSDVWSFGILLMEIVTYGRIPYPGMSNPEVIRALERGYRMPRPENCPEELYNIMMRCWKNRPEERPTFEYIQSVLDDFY
Experimental: as §1

fms = target: T4, fms (Homo sapiens, UniProt P07333); experiment: Kinase assay (ELISA or Alphascreen), fms; conditions: standard conditions, read-out: fms inhibition of enzyme activity
T4 sequence (P07333 582-910 limits assumed): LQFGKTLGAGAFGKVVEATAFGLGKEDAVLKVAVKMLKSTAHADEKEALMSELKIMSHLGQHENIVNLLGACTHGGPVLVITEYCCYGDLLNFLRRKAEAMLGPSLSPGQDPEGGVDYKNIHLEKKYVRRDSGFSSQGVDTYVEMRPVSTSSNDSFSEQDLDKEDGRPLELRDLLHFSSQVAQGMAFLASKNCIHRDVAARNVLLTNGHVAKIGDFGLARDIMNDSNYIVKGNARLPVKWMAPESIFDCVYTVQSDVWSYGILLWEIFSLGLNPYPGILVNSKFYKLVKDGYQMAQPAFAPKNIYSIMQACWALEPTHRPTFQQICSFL
Experimental: as §1

kdr = kdr (Homo sapiens, UniProt P35968); experiment: Kinase assay (ELISA or Alphascreen), kdr; conditions: standard conditions, read-out: kdr inhibition of enzyme activity
Chain of kdr (P35968 834-1162 limits assumed, species assumed): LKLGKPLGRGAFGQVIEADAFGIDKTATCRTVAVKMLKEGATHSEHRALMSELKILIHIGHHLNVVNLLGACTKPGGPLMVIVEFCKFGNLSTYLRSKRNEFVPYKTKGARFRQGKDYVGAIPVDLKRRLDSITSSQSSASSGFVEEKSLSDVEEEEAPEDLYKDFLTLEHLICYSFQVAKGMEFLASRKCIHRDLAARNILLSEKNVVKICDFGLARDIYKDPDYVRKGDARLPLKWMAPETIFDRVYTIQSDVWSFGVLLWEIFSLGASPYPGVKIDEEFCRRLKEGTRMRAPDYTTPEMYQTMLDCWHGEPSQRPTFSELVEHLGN
Experimental: as §1

abl = target: T5, abl (Homo sapiens, UniProt P00519); experiment: Kinase assay (ELISA or Alphascreen), abl; conditions: standard conditions, read-out: abl inhibition of enzyme activity
T5 sequence (P00519 242-493 limits assumed): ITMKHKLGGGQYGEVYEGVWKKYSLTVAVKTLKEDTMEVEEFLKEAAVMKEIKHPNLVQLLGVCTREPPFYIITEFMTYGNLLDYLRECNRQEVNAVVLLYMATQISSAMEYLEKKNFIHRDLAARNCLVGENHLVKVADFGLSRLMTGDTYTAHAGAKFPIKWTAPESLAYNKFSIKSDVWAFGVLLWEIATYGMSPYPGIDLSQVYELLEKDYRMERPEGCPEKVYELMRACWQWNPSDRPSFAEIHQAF
Experimental: as §1

tie2 = tie2 (Homo sapiens, UniProt Q02763); experiment: Kinase assay (ELISA or Alphascreen), tie2; conditions: standard conditions, read-out: tie2 inhibition of enzyme activity
Chain of tie2 (Q02763 824-1096 limits assumed, species assumed): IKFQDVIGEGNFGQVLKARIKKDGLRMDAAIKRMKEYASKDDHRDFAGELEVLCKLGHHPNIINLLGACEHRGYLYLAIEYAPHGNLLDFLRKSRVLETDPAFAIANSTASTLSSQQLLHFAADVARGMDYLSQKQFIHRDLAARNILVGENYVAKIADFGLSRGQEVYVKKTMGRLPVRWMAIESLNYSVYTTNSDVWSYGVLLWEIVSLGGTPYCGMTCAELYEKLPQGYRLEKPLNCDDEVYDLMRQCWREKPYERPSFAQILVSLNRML
Experimental: as §1

btk = btk (Homo sapiens, UniProt Q06187); experiment: Kinase assay (ELISA or Alphascreen), btk; conditions: standard conditions, read-out: btk inhibition of enzyme activity
Chain of btk (Q06187 402-655 limits assumed, species assumed): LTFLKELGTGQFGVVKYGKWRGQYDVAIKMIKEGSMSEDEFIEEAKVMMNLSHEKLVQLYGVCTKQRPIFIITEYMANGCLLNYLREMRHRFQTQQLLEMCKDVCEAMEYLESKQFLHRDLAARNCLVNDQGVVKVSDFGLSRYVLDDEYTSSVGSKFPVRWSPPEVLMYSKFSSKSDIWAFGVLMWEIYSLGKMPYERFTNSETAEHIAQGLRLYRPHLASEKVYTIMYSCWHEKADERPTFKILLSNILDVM
Experimental: as §1

With `Nc1ccc(-c2cncc(-n3cnc4ccccc43)n2)cc1` the inhibition at 20 µM (zap70) was ≥ 50%, the inhibition at 20 µM (human JAK3) was < 50% and the inhibition at 20 µM (human JAK2) was ≥ 50%.
For `C[C@H](Nc1cncc(-n2cnc3cc(NC(=O)c4ccc(CN5CCN(C)CC5)cc4)ccc32)n1)c1ccccc1`, the inhibition at 20 µM (zap70) was ≥ 50%, the inhibition at 20 µM (human JAK3) was < 50% and the inhibition at 20 µM (hck) was ≥ 50%. For the same compound, the inhibition at 20 µM (human JAK2) was < 50%.
In the case of `CC(Nc1cncc(-n2cnc3cc(C#N)ccc32)n1)c1cccnc1` (stereo not shown), the inhibition at 20 µM (human JAK3) is reported as ≥ 50%, the inhibition at 20 µM (hck) is reported as ≥ 50% and the inhibition at 20 µM (human JAK2) is reported as ≥ 50%.
In the case of `CCNC(=O)Nc1ccc2c(c1)ncn2-c1cncc(N[C@@H](C)c2ccccc2)n1`, the inhibition at 20 µM (fms) is reported as ≥ 50%, the inhibition at 20 µM (human JAK3) is reported as < 50% and the inhibition at 20 µM (human JAK2) is reported as ≥ 50%.
With `Cc1ccc([C@H](C)Nc2cncc(-n3cnc4ccc(C#N)cc43)n2)cc1` the inhibition at 20 µM (zap70) was ≥ 50%, the inhibition at 20 µM (human JAK3) was ≥ 50% and the inhibition at 20 µM (human JAK2) was ≥ 50%.
With `CC(Nc1cncc(-n2cnc3ccc(C#N)cc32)n1)c1cc(F)cc(F)c1` (stereo not shown) the inhibition at 20 µM (human JAK3) was ≥ 50%, the inhibition at 20 µM (hck) was ≥ 50% and the inhibition at 20 µM (human JAK2) was ≥ 50%.
For `CC(Nc1cncc(-n2cnc3ccc(CO)cc32)n1)c1ccc(F)cc1` (stereo not shown), the inhibition at 20 µM (human JAK3) was < 50%, the inhibition at 20 µM (kdr) was ≥ 50% and the inhibition at 20 µM (human JAK2) was ≥ 50%.
`Cc1ncc(-n2cnc3cc(C#N)ccc32)nc1N[C@@H](C)c1ccccc1` was tested, and the inhibition at 20 µM (human JAK3) was ≥ 50%, the inhibition at 20 µM (kdr) was ≥ 50% and the inhibition at 20 µM (human JAK2) was ≥ 50%.
In the case of `CC(Nc1cncc(-n2cnc3ccc(C#N)cc32)n1)c1cccnc1` (stereo not shown), the inhibition at 20 µM (human JAK3) is reported as < 50%, the inhibition at 20 µM (abl) is reported as ≥ 50% and the inhibition at 20 µM (human JAK2) is reported as < 50%.
With `CC[C@H](Nc1cncc(-n2cnc3cc(C#N)ccc32)n1)c1ccccc1` the inhibition at 20 µM (human JAK3) was ≥ 50%, the inhibition at 20 µM (kdr) was ≥ 50% and the inhibition at 20 µM (tie2) was ≥ 50%. The inhibition at 20 µM (human JAK2) was ≥ 50%.
In the case of `C[C@H](Nc1cncc(-n2cnc3ccc(CO)cc32)n1)c1ccc(F)cc1`, the inhibition at 20 µM (human JAK3) is reported as < 50%, the inhibition at 20 µM (btk) is reported as ≥ 50% and the inhibition at 20 µM (hck) is reported as ≥ 50%. For the same compound, the inhibition at 20 µM (human JAK2) was ≥ 50%.
In the case of `C[C@H](Nc1cncc(-n2cnc3ccc(CN4CCCC4)cc32)n1)c1ccc(F)cc1`, the inhibition at 20 µM (human JAK3) is reported as < 50%, the inhibition at 20 µM (tie2) is reported as ≥ 50% and the inhibition at 20 µM (human JAK2) is reported as ≥ 50%.
With `C[C@H](Nc1cncc(-n2cnc3ccc(CN(CCO)CCO)cc32)n1)c1ccc(F)cc1` the inhibition at 20 µM (human JAK3) was < 50%, the inhibition at 20 µM (hck) was ≥ 50% and the inhibition at 20 µM (human JAK2) was ≥ 50%.
With `C[C@H](Nc1cncc(-n2cnc3ccc(CN4CCNCC4)cc32)n1)c1ccc(F)cc1` the inhibition at 20 µM (human JAK3) was ≥ 50%, the inhibition at 20 µM (tie2) was ≥ 50% and the inhibition at 20 µM (human JAK2) was < 50%.
With `CO/C=C\N(C)CCCCNC(=O)c1ccc2ncn(-c3cncc(N[C@@H](C)c4ccccc4)n3)c2c1` the inhibition at 20 µM (zap70) was ≥ 50%, the inhibition at 20 µM (human JAK3) was ≥ 50% and the inhibition at 20 µM (kdr) was ≥ 50%. For the same compound, the inhibition at 20 µM (human JAK2) was ≥ 50%.
With `C[C@H](Nc1cncc(-n2cnc3cc(NC(=O)N4CCN(C)CC4)ccc32)n1)c1ccccc1` the inhibition at 20 µM (zap70) was ≥ 50%, the inhibition at 20 µM (human JAK3) was < 50% and the inhibition at 20 µM (kdr) was ≥ 50%. The inhibition at 20 µM (abl) was ≥ 50%, the inhibition at 20 µM (hck) was ≥ 50% and the inhibition at 20 µM (human JAK2) was ≥ 50%.
`CC(Nc1cncc(-n2cnc3cnccc32)n1)c1ccc(F)cc1` (stereo not shown) was tested, and the inhibition at 20 µM (human JAK3) was < 50%, the inhibition at 20 µM (kdr) was ≥ 50% and the inhibition at 20 µM (human JAK2) was ≥ 50%.
In the case of `CC1CC(Nc2cncc(-n3cnc4cc(C#N)ccc43)n2)c2ccccc21` (stereo not shown), the inhibition at 20 µM (fms) is reported as ≥ 50%, the inhibition at 20 µM (human JAK3) is reported as ≥ 50% and the inhibition at 20 µM (human JAK2) is reported as ≥ 50%.

Source: patent US7737143B2, “Substituted pyrazines as kinase inhibitors” (YM Biosciences Australia Pty Ltd, priority 2003, dated 2010)
